The conditions of data set [1]: inferred from CNS responses in NSCLC patients; cited from earlier work.
The test system of data set [2] is CLB-PE (ALK-WT, non-ALK addicted) neuroblastoma cells. As to the kind of experiment: Proliferation assay (resazurin cell viability), CLB-PE. It counts as cell-based, human. The settings on record: 72 hours. How it is done:
(§1) Cells were seeded at 15,000 per well with serial dilutions of the indicated inhibitors. After 72 hours cell viability was assessed by resazurin (Sigma, Sweden). IC50 values were calculated with GraphPad Prism 6.0 by fitting data to a log (inhibitor concentration) vs. normalized response (variable slope) equation. Each experiment was performed in duplicate and repeated at least three times.
(Alamar Blue is a resazurin reagent that responds to reducing activity.)

Data set [3] concerns CLB-GE (ALK-F1174V, ALK addicted) neuroblastoma cells. As to the kind of experiment: Proliferation assay (resazurin cell viability), CLB-GE. The settings on record: Homo sapiens, 72 hours, read-out: IC50 (cell growth). It counts as cell-based. The procedure: as §1
For another data set, the system named is CLB-BAR cells. As to the kind of experiment: Xenograft neuroblastoma model in vivo. Details: species or system BalbC/NUDE mice. The source says: In the first investigation mice (n=3) were employed and in the second investigation mice (n=5) were employed. […] In the second investigation where 5 mice were employed a subset of mice (n=2) were released from treatment after 14 days, for a further 8 days (blue curve). […] C. […] Data are means +/− SE from 8 tumours, p values indicated; Student's t test.
Female Balbc/nude mice (Charles River, Germany) at 5-6 weeks age were maintained in a pathogen-free environment. For xenografts, 2.5 million CLB-BAR cells (MYCN amplified, ALK (Δ4-11) amplified) were injected subcutaneously. Once tumor volume achieved about 50mm^3, drug was given at 50 mg/kg body weight, by oral gavage, once daily, continuously for 14 days. Mice were grouped by tumor volume randomly. Tumor volume was calculated with the following equation: V=0.5236×L×W^2 (V=volume, L=longest, W=width).
Mice were sacrificed and tumors were collected. Tumors were fixed in 4% PFA, followed by 15% and 30% sucrose in PBS. Tumors were embedded in OCT compound (VWR chemicals) and frozen at −80°C. […] Secondary antibodies (Cell Signaling Tech., Danver, MA) were applied for 2 hours at room temperature. Impact DAB (Vector Laboratories, SK 4105) was employed for staining followed by hematoxylin cross-staining (Sigma-Aldrich). After mounting sections, images were taken using an Axio zoom V16 stereo microscope (Zeiss).

For another data set, the system named is ALK mutants. As to the kind of experiment: Neurite outgrowth assay in PC12 cells, ALK mutants. In kind it is cell-based, human. The procedure:
PC12 cells (2 x10^6) co-transfected, in 100 μl of Ingenio electroporation solution (Minus Bio LCC), with pEGFPN1 (Clonetech) (0.5 ng) and ALK-mutant (0.75 ng) or ALK-wt (0.75 ng) as indicated were seeded sparingly into 24-well plates. ALK-wild type was stimulated with 1 μg/ml mAb31. After 48 hours post transfection, the fraction of GFP-positive and neurite carrying cells versus GFP-positive cells were analyzed under a Zeiss Axiovert 40 CFL microscope. A cell was considered as neurite-carrying if it had neurite(s) that reached at least twice the length of the diameter of a normal cell body. The experiments were performed at least three times in triplicates.

For data set [4], the system named is IMR32 (ALK-WT, non-ALK addicted) neuroblastoma cells. As to the kind of experiment: Proliferation assay (resazurin cell viability), IMR32. In kind it is cell-based, human. Conditions: IMR32, 72 hours. How it is done:
as §1

A further data set has as its system ALK-positive NSCLC. The settings on record: cited from earlier work.
Data set [5] deals with CLB-BAR (ALK-Δ4-11, ALK addicted) neuroblastoma cells. As to the kind of experiment: Proliferation assay (resazurin cell viability), CLB-BAR. In kind it is cell-based. Conditions: Homo sapiens, 72 hours, read-out: IC50 (cell growth). How it is done:
as §1

Data set [6] deals with neuroblastoma tumor growth. The settings on record: orthotopic xenograft tumor growth and TH-ALKF1174L/TH-MYCN mouse model; cited from earlier work.
Where [7] appears, read: immunoblotting, vs control group.

SMILES strings stand for the structures.

As usually defined, the IC50 is the concentration that inhibits the measured activity by half. As to `COc1cc(N2CCC(N3CCN(C)CC3)CC2)ccc1Nc1ncc(Cl)c(Nc2ccccc2P(C)(C)=O)n1` [brigatinib], the blood-brain barrier penetration entry in [1] is given as “able to penetrate the blood-brain barrier”. For the same compound, the “inhibition of cell growth” value in data set [2] is listed as “Neither brigatinib nor crizotinib was able to inhibit growth”. The IC50 in data set [3] came out at 100 ± 17.5 nM. For the same compound, the tumor weight result in the data set on CLB-BAR cells (50 mg/kg once daily oral gavage, 14 days, vs controls, p=0.01) is “significantly reduced”. For the same compound, the “tumor volume / tumor growth” value in the data set with CLB-BAR cells (50 mg/kg once daily oral gavage, 14 days, vs vehicle, p=0.0004) is given as “considerably inhibits proliferation of tumor growth”. Also, the “side effect in vivo” value in the data set with CLB-BAR cells (50 mg/kg once daily, 14 days) is given as “no obvious side effect”. Also, in the data set with CLB-BAR cells (50 mg/kg once daily, 14 days, p=0.9), the “body weight of mice” value is recorded as “did not show any variation”. Also, in the data set with CLB-BAR cells (setting [7]), the “MYCN protein levels in tumor material” value was “decreased protein levels”; the “phospho-ALK levels in tumor material” value is recorded as “decreased phospho-ALK levels”; the “phosphorylated ERK5 and AKT in tumor material” value is “reduced phosphorylation”; the “total ALK protein levels in tumor material” value is reported as “No obvious change”. For the same compound, the “tumor volume/growth after discontinuation of treatment” value with CLB-BAR cells (treatment discontinued after 14 days, for 8 days, n=2) is on record as “increase in tumor volume/growth”. Also, in the data set with CLB-BAR cells (vs controls, p=0.0005), the “Ki-67 proliferation marker in excised tumor” value is listed as “significantly reduced proliferation”. Moreover, the “block of neurite outgrowth compared with crizotinib” value in the data set on ALK mutants (ALK-G1269A, ALK-R1275 and ALK-R1192P, brigatinib 15 and 30 nM vs crizotinib 250 nM) was “more efficiently than crizotinib”. Moreover, the “neurite outgrowth of all tested ALK mutants” value in the data set on ALK mutants (PC12 cells, 48 hours) is given as “could abrogate neurite outgrowth”. Besides, in [4], the “inhibition of cell growth” value was “Neither brigatinib nor crizotinib was able to inhibit growth”. The “patients with non-measureable CNS lesions with disappearance of all lesions” value in the data set on ALK-positive NSCLC (8/26 patients) is on record as 31%. Further, the “patients responding to treatment” value in the data set on ALK-positive NSCLC (crizotinib refractory ALK-positive NSCLC patients) is “about 72%”. Moreover, in the data set on ALK-positive NSCLC (radiological review, 6/12 patients), the “response in patients with baseline CNS metastases” value is 50%. For the same compound, in data set [5], the IC50 was determined as 75.3 ± 8.89 nM.
Consider `C[C@@H](Oc1cc(-c2cnn(C3CCNCC3)c2)cnc1N)c1c(Cl)ccc(F)c1Cl` [crizotinib], for which, in data set [6], the “efficacy as a single agent treatment” value was “limited efficacy”.
